Assay results taken from US5635510A, “Substituted pyrrolidin-3-yl-alkyl-piperidines” (Merrell Pharmaceuticals Inc., priority 1994, dated 1997).

Tests used:
[1] = biological target: T1, human jejunal NK2 receptor (Homo sapiens, UniProt P21452); test: Antagonism of iodinated neurokinin A binding to NK2 receptor, HSKR-1 cells (mouse 3T3 fibroblasts expressing the human jejunal NK2 receptor); settings: for IC50: NK-2 IC50, HSKR-1 cells, 125I-neurokinin A, mean of several experiments
T1 construct: expressed in transfected cells; host or cells: HSKR-1 cells (mouse 3T3 fibroblasts)
T1 sequence (P21452 1-398): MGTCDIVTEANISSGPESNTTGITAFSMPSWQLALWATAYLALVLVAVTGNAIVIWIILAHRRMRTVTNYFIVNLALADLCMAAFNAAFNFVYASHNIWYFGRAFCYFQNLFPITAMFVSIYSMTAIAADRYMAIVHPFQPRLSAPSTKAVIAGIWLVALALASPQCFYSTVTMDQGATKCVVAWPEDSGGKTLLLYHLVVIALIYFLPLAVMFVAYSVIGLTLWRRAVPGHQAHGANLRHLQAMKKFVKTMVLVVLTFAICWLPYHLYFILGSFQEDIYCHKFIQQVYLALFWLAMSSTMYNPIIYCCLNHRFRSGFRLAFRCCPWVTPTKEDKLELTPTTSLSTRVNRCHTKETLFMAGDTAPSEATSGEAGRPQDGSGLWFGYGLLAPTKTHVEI
Description: (§1) ANTAGONISM OF IODINATED TACHYKININ BINDING TO NK1 AND NK2
(§2) RECEPTORS BY PUTATIVE ANTAGONISTS
(§3) The NK1 receptor affinity of proposed tachykinin antagonists was evaluated in guinea pig lungs (Keystone Biologicals, Cleveland, OH), affinity for the NK2 receptor evaluated in HSKR-1 cells (which are mouse 3T3 fibroblasts expressing the human jejunal NK2 receptor) and NK-3 receptor affinity was evaluated in freshly collected guinea pig cerebral cortex. Tissues or cells were homogenized with a Polytron in 15 volumes of 50 mM Tris-HCl buffer (pH 7.4, 4° C.) and centrifuged. The pellet was resuspended in Tris-HCl buffer and was centrifuged; the pellet was washed twice by resuspension. The final pellet was resuspended at a concentration of 40 mg/ml for tissues (guinea pig lung and cerebral cortex) and 20 mg/ml for cells in incubation buffer and remained at room temperature for at least 15 min prior to use. Receptor binding was initiated by addition of 250 ul membrane preparation in duplicate to 0.1 nM of the following radioligands: ^125 I-Bolton Hunter Lys-3 labeled substance P; ^125 iodohistidyl-1-neurokinin A; and ^125 I-Bolton Hunter labeled Lys-4 eledoisin in a final volume of 500 ul of buffer containing 50 mM Tris-HCl (pH 7.4 at room temperature), 0.1% bovine serum albumin, 2 mM MnCl2, 40 ug/ml bacitracin, 4 μg/ml leupeptin and chymostatin, 1 μM thiorphan and various doses of the putative tachykinin antagonists. Incubations were performed at room temperature for 90 min (NK1 receptor assays) or 2 hr (NK2 and NK3 receptor assays); binding was terminated by addition of 50 mM Tris-HCl buffer (pH 7.4, 4° C.) and filtration under vacuum through GF/B filters presoaked with 0.1% polyethyleneimine (NK1 receptor assays) or 0.5% bovine serum albumin (NK2 and NK3 receptor assays). Filter bound radioactivity was quantitated in a gamma counter. Nonspecific binding was defined as binding in the presence of 1 μM substance P, neurokinin A, or eledoisin. Specific binding was calculated by subtracting nonspecific binding from total binding. Competition of iodinated SP, NKA, or eledoisin binding by test compounds or standards was expressed as a percentage of this maximum competition. IC50 values (concentration required to inhibit 50% of receptor binding) were generated for each of the test compounds by nonlinear regression using an iterative curve fitting program (GraphPAD Inplot, San Diego, Calif.).

NK1 receptor [2] = biological target: T2, NK1 receptor (Cavia porcellus, UniProt P30547); test: Antagonism of iodinated substance P binding to NK1 receptor, guinea pig lung; settings: for IC50: NK-1 IC50, guinea pig lung, 125I-substance P, mean of several experiments
T2 construct: evaluated in guinea pig lungs; tissue Keystone Biologicals, Cleveland, OH; host or cells: guinea pig lung
Description: as §1, §2, §3

NK1 receptor [3] = biological target: T3, NK1 receptor (Homo sapiens, UniProt P25103); test: Antagonism of NK1 receptor mediated (SP-induced) phosphatidylinositol turnover in UC11 cells; type: cell-based
T3 construct: antagonizes both NK1 (on UC11 cells); endogenous in cells; host or cells: UC11 cells
Description: Tachykinin-mediated inositol phosphate accumulation was measured in UC11 or SKLKB82#3 cells in the presence and absence of NK1 or NK2 receptor antagonists, respectively. Tissues were incubated in Krebs-Henseleit buffer at 37° C. with 95% O2 -5% CO2 gassing. Tissues were then incubated with fresh buffer containing 100 μCi of myo-[2-3H(N)] inositol at 37° C. for 60 min with gentle gassing. After washing twice in 5 ml room temperature buffer containing 10 mM LiCl, tissues were incubated for 30 min at room temperature with a buffer change at 15 min. Buffer was removed and Krebs-Henseleit buffer (containing 40 μg/ml bacitracin, 4 μg/ml each of leupeptin and chymostatin, 0.1% bovine serum albumin and 10 mM each of thiorphan and LiCl) added. After 15 min, SP was added to UC11 cells or NKA to SKLKB82#3 cells at various concentrations to start the reaction. After incubation for 60 min at room temperature the reaction was terminated by addition of 930 μl chloroform: methanol (1:2 by volume) to each tube, followed by 310 μl chloroform and 310 μl doubly distilled water. Samples were vortexed, centrifuged, and 0.9 ml of the aqueous (top) phase removed and added to 2 ml ddH2 O. The mixture was vortexed and loaded onto a 50% Bio-Rad AG 1-X8 (formate form, 100-200 mesh) exchange column (Bio-Rad Laboratories, Hercules, Calif.). The columns were washed, in order, with: 1) 10 ml doubly distilled water, 2) 5 ml of 5 mM disodium tetraborate/60 mM sodium formate, and 3) 5 ml of 1M ammonium formate/0.1M formic acid. The third elution was collected and 1 ml counted in 7 ml scintillation fluid. A 50 μl aliquot of the organic (bottom) phase was removed, dried in a scintillation vial and counted in 7 ml scintillation fluid.
The ratio of DPM in the aqueous phase aliquot (total inositol phosphates) to the DPM in the 50 μl organic phase aliquot (total [^3 H]inositol incorporated) was calculated for each sample. Data are expressed as a percent of agonist-induced accumulation of [^3 H]-inositol phosphates over basal levels. The ratios in the presence of test compound and/or standards were compared to the ratios for control samples (i.e. no stimulating agonist). Dose-response graphs were constructed and the abilities of the test compounds to inhibit tachykinin-induced phosphatidyinositol turnover determined with the aid of a computer program. […] Data is expressed as percent stimulation of total inositol phosphate accumulation over basal levels and normalized to the maximum response produced by SP. […] Schild analysis is performed using dose response curves (such as those presented in FIGS. 1a and 1b) to obtain a value indicative of the strength of a competitive antagonist and is expressed as the pA2, which is the negative logarithm of the molar concentration of antagonist which reduces the effect of a dose of agonist to one-half of that expected at the dose of agonist.

T2 sequence (P30547 whole entry): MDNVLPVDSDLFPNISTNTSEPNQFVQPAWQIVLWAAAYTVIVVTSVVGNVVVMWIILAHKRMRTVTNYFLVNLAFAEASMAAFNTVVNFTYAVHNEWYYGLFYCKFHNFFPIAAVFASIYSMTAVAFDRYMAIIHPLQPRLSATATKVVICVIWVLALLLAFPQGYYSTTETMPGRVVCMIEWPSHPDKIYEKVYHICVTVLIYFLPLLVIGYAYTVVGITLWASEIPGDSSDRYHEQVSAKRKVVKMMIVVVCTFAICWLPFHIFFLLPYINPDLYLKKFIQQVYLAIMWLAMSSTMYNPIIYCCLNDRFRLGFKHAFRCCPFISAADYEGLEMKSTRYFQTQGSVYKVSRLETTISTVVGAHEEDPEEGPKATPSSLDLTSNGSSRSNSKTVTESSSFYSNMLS
T3 sequence (P25103 whole entry): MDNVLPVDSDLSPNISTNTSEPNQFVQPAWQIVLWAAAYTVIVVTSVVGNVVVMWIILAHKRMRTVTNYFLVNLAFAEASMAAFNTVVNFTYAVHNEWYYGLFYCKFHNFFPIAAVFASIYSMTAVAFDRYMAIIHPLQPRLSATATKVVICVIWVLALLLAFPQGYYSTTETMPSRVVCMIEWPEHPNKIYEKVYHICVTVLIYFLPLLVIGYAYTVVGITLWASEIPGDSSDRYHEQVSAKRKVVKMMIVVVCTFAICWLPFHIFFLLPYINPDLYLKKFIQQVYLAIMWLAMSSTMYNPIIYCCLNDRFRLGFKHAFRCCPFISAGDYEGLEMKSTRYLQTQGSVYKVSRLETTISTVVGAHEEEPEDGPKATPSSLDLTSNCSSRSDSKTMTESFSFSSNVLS

Structure (SMILES)	IC50 [1]	IC50 (NK1 receptor [2])	relative antagonism of NK1 and NK2 receptors (in words) (NK1 receptor [3]; PI turnover, UC11 (NK1) versus SKLKB82#3 (NK2) cells)	Kb (NK1 receptor [3]; UC11 cells, SP, Schild analysis, mean (95% confidence limits), 2-3 experiments, read-out: NK-1 receptor pA2 (converted))	affinity for NK2 receptors (in words) ([1]; HSKR-1 cells)	affinity for NK1 receptors (in words) (NK1 receptor [2]; guinea pig lung)	antagonism of SP-induced PI turnover (in words) (NK1 receptor [3]; UC11 cells, FIG. 1a)	agonist activity (stimulation of PI turnover by compound alone) (NK1 receptor [3]; UC11 or SKLKB82#3 cells)
COc1cc(C(=O)N2CCC(CCN3CCC(C(N)=O)(c4ccccc4)CC3)(c3ccc(Cl)c(Cl)c3)C2)cc(OC)c1OC (single isomer, unassigned; (+)) [Example 20, (+)-1-[2-[3-(3,4-dichloro-phenyl)-1-(3,4,5-trimethoxy-benzoyl)-pyrrolidin-3-yl]-ethyl]-4-phenylpiperidine-4-carboxylic acid amide]	8.4 nM	4.65 nM	antagonized both NK1 and NK2 receptors by nearly equivalent amounts	6.46 nM	–	–	–	–
COc1cc(C(=O)N2CCC(CCN3CCC(C(N)=O)(c4ccccc4)CC3)(c3ccc(Cl)c(Cl)c3)C2)cc(OC)c1OC.Cl (single isomer, unassigned; (+)) [Example 20A, (+)-1-[2-[3-(3,4-dichloro-phenyl)-1-(3,4,5-trimethoxy-benzoyl)-pyrrolidin-3-yl]-ethyl]-4-phenyl-piperidine-4-carboxylic acid amide hydrochloride]	7.93 nM	2.99 nM	–	–	–	–	–	–
COc1cc(C(=O)N2CCC(CCN3CCC(C(N)=O)(c4ccccc4)CC3)(c3ccc(Cl)c(Cl)c3)C2)cc(OC)c1OC (stereo not shown) [Example 3, 1-[2-[3-(3,4-dichloro-phenyl)-1-(3,4,5-trimethoxy-benzoyl)-pyrrolidin-3-yl]-ethyl]-4-phenyl-piperidine-4-carboxylic acid amide]	–	–	–	–	high affinity	high affinity	antagonizes both NK1 (on UC11 cells) and NK2 (on SKLKB82#3) receptors in a dose-dependent manner	no agonist activity
